Test results: BindingDB's records for doi:10.1016/s0960-894x(00)00604-1 (Merck Research Laboratories, 2001)

Biological target: Histone deacetylase (Eimeria tenella)
Assay: Inhibitory activity against histone deacetylase (HDAC) from partially purified extracts of Eimeria tenella protozoal cells

SMILES	IC50
CCC(=O)CCCCC[C@@H]1NC(=O)[C@H]2CCCCN2CC(=O)[C@H]([C@@H](C)CC)NC(=S)[C@H](Cc2cn(OC)c3ccccc23)NC1=O	210 nM
CC[C@H](C)[C@@H]1NC(=O)[C@H](Cc2cn(OC)c3ccccc23)NC(=O)[C@H](CCCCCP(=O)(OC)OC)NC(=O)[C@H]2CCCCN2CC1=O	850 nM
CC[C@H](C)[C@@H]1NC(=O)[C@H](Cc2cn(OC)c3ccccc23)NC(=O)[C@H](CCCCCC(=O)C(C)O)NC(=O)[C@H]2CCCCN2CC1=O (some centres not stated)	4 nM
CCCCCCCC[C@@H]1NC(=O)[C@H]2CCCCN2CC(=O)[C@H]([C@@H](C)CC)NC(=O)[C@H](Cc2cn(OC)c3ccccc23)NC1=O	300 nM

The next lines start with the values.

IC50	SMILES
0.8 nM	CC[C@H](C)[C@@H]1NC(=O)[C@H](Cc2cn(OC)c3ccccc23)NC(=O)[C@H](CCCCCC(=O)OC)NC(=O)[C@H]2CCCCN2CC1=O
1 nM	CC[C@H](C)[C@@H]1NC(=O)[C@H](Cc2cn(OC)c3ccccc23)NC(=O)[C@H](CCCCCC(=O)C2CO2)NC(=O)[C@H]2CCCCN2CC1=O (some centres not stated)
30 nM	CC[C@H](C)[C@@H]1NC(=O)[C@H](Cc2cn(OC)c3ccccc23)NC(=O)[C@H](CCCCCC(=O)O)NC(=O)[C@H]2CCCCN2CC1=O
